Source: patent publication US20040067531A1, “Methods of modulating protein tyrosine kinase function with substituted indolinone compounds” (SUGEN, INC., priority 1997, published 2004)
Read-outs that look alike come from different tables or passages of the source.

Legend:
[1] = system: EGF-induced BrdU incorporation; assay: EGF-induced BrdU incorporation assay; format: cell-based; settings: read-out: EGF-Induced BrdU Incorp. IC50
Protocol: PDGF-, FGF-, and EGF-Induced BRDU Incorporation Assay
1. Cells were seeded at 8000 cells/well in DMEM, 10% CS, 2 mM Gln in a 96 well plate. Cells were incubated overnight at 37° C. in 5% CO2.
2. After 24 hours, the cells were washed with PBS, and then were serum starved in serum free medium (0% CS DMEM with 0.1% BSA) for 24 hours.
3. On day 3, ligand (PDGF=3.8 nM, prepared in DMEM with 0.1% BSA) and test compounds were added to the cells simultaneously. The negative control wells received serum free DMEM with 0.1% BSA only; the positive control cells received the ligand (PDGF) but no test compound. Test compounds were prepared in serum free DMEM with ligand in a 96 well plate, and serially diluted for 7 test concentrations.
4. After 20 hours of ligand activation, diluted BrdU labeling reagent (1:100 in DMEM, 0.1% BSA) was added and the cells were incubated with BrdU (final concentration=10 μM) for 1.5 hours.
5. After incubation with labeling reagent, the medium was removed by decanting and tapping the inverted plate on a paper towel. FixDenat solution was added (50 μL/well) and the plates were incubated at room temperature for 45 minutes on a plate shaker.
6. The FixDenat solution was thoroughly removed by decanting and tapping the inverted plate on a paper towel. Milk was added (5% dehydrated milk in PBS, 200 μL/well) as a blocking solution and the plate was incubated for 30 minutes at room temperature on a plate shaker.
7. The blocking solution was removed by decanting and the wells were washed once with PBS. Anti-BrdU-POD solution (1:100 dilution in PBS, 1% BSA) was added (100 μL/well), and the plate was incubated for 90 minutes at room temperature on a plate shaker.
8. The antibody conjugate was thoroughly removed by decanting and rinsing the wells 5 times with PBS, and the space was dried by inverting and tapping on a paper towel.
9. TMB substrate solution was added (100 μL/well) and incubated for 20 minutes at room temperature on a plate shaker until color development was sufficient for photometric detection.
10. The absorbance of the samples were measured at 410 nm (in “dual wavelength” mode with a filter reading at 490 nm, as a reference wavelength) on a Dynatech ELISA plate reader.
The IC50 values were measured for several of the compounds of the invention. These values are depicted in Table 10.

FLK-1 receptor = biological target: T1, FLK-1 receptor (Mus musculus, UniProt P35918); assay: ELISA assay measuring the kinase activity of the FLK-1 receptor in cells engineered to express FLK-1; format: cell-based; settings: NIH3T3 C7#3 FLK-1 expressing cells, VEGF stimulation, phosphotyrosine ELISA
T1 construct: expressed in transfected cells; host or cells: NIH3T3 C7#3
T1 sequence (P35918 20-1345): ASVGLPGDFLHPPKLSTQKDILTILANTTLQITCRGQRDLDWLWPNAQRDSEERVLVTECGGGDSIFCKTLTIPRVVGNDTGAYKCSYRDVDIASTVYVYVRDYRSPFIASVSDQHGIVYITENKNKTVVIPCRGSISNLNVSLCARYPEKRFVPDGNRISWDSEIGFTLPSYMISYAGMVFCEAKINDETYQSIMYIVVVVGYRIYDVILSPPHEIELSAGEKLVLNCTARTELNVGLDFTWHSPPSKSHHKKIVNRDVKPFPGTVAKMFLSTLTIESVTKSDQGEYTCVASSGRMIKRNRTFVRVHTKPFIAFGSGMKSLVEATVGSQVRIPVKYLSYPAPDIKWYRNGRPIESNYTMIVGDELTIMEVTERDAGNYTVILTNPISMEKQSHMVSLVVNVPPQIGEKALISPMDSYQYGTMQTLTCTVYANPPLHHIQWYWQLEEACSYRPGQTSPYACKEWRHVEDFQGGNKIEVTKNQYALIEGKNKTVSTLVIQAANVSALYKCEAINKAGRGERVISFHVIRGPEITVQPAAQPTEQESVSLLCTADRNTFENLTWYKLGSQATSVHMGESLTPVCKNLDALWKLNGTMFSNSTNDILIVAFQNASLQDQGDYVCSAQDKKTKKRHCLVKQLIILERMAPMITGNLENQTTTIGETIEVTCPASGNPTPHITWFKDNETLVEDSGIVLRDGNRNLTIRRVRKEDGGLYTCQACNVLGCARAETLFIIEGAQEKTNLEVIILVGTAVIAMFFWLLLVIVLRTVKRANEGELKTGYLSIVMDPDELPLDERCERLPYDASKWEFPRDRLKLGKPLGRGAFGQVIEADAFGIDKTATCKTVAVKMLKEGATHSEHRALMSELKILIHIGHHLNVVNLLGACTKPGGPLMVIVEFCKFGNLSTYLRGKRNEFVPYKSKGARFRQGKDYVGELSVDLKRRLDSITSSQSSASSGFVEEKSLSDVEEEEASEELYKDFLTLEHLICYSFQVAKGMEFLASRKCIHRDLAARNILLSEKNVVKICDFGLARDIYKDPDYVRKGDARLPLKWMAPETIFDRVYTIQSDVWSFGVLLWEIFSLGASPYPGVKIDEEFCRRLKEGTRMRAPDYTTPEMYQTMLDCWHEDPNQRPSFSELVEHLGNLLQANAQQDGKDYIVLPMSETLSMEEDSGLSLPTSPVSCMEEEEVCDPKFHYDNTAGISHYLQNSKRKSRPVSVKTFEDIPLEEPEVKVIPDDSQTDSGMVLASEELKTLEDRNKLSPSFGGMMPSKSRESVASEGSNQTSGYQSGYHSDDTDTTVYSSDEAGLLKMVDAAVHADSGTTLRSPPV
Protocol: An ELISA assay was conducted to measure the kinase activity of the FLK-1 receptor and more specifically, the inhibition or activation of TK activity on the FLK-1 receptor. Specifically, the following assay was conducted to measure kinase activity of the FLK-1 receptor in cells genetically engineered to express FLK-1.
(11) NIH3T3 C7#3 Cells (FLK-1 expressing cells);
The following protocol was used for conducting the assay:
1. Coat Corning 96-well elisa plates with 1.0 μg per well Cappel Anti-rabbit IgG antibody in 0.1 M Na2CO3 pH 9.6. Bring final volume to 150 μL per well. Coat plates overnight at 4° C. Plates can be kept up to two weeks when stored at 4° C.
2. Grow cells in Growth media (DMEM, supplemental with 2.0 mM L-Glutamine, 10% FBS) in suitable culture dishes until confluent at 37° C., 5% CO2.
3. Harvest cells by trypsinization and seed in Corning 25850 polystyrene 96-well roundbottom cell plates, 25.000 cells/well in 200 μL of growth media.
4. Grow cells at least one day at 37° C., 5% CO2.
5. Wash cells-with D-PBS 1×.
6. Add 200 μL/well of starvation media (DMEM, 2.0 mM 1-Glutamine, 0.1% FBS). Incubate overnight at 37° C., 5% CO2.
7. Dilute Compounds 1:20 in polypropylene 96 well plates using starvation media. Dilute dimethylsulfoxide 1:20 for use in control wells.
8. Remove starvation media from 96 well cell culture plates and add 162 μL of fresh starvation media to each well.
9. Add 18 μL of 1:20 diluted Compound dilution (from step 7) to each well plus the 1:20 dimethylsulfoxide dilution to the control wells (+/− VEGF), for a final dilution of 1:200 after cell stimulation. Final dimethylsulfoxide is 0.5%. Incubate the plate at 37° C., 5% CO2 for two hours.
10. Remove unbound antibody from ELISA plates by inverting plate to remove liquid. Wash 3 times with TBSW+0.5% ethanolamine, pH 7.0. Pat the plate on a paper towel to remove excess liquid and bubbles.
11. Block plates with TBSW+0.5% Ethanolamine, pH 7.0, 150 μL per well. Incubate plate thirty minutes while shaking on a microliter plate shaker.
12. Wash plate 3 times as described in step 10.
13. […] Bring final volume to 150 μL/well with TBSW+0.5% ethanolamine pH 7.0. Incubate plate for thirty minutes while shaking.
14. Add 180 μL starvation medium to the cells and stimulate cells with 20 μL/well 10.0 mM sodium ortho vanadate and 500 ng/mL VEGF (resulting in a final concentration of 1.0 mM sodium ortho vanadate and 50 ng/mL VEGF per well) for eight minutes at 37° C., 5% CO2. Negative control wells receive only starvation medium.
15. After eight minutes, media should be removed from the cells and washed one time with 200 μL/well PBS.
16. Lyse cells in 150 μL/well HNTG while shaking at room temperature for five minutes. HNTG formulation includes sodium ortho vanadate, sodium pyro phosphate and EDTA.
17. Wash ELISA plate three times as described in step 10.
18. Transfer cell lysates from the cell plate to ELISA plate and incubate while shaking for two hours. To transfer cell lysate pipette up and down while scrapping the wells.
19. Wash plate three times as described in step 10.
20. Incubate ELISA plate with 0.02 μg/well UB40 in TBSW+05% ethanolamine. Bring final volume to 150 μL/well. Incubate while shaking for 30 minutes.
21. Wash plate three times as described in step 10.
22. Incubate ELISA plate with 1:10,000 diluted EIA grade goat anti-mouse IgG conjugated horseradish peroxidase in TBSW+0.5% ethanolamine, pH 7.0. Bring final volume to 150 μL/well. Incubate while shaking for thirty minutes.
23. Wash plate as described in step 10.
24. Add 100 μL of ABTS/H2O2 solution to well. Incubate ten minutes while shaking.
25. Add 100 μL of 0.2 M HCl for 0.1 M HCl final to stop the color development reaction. Shake 1 minute at room temperature. Remove bubbles with slow stream of air and read the ELISA plate in an ELISA plate reader at 410 nm.
The IC50 values were measured for several of the compounds of the invention.

Row | SMILES | IC50 [1] [nM] | IC50 (FLK-1 receptor) [nM] | IC50 ([1]; EGF-induced) [nM]
1 | O=C(O)CCc1c(C=C2C(=O)Nc3ccccc32)[nH]c2c1CCCC2 [IN-001, 3-[2-(2-Oxo-1,2-dihydro-indol-3-ylidenemethyl)-4,5,6,7-tetrahydro-1H-indol-3-yl]-propionic acid] | 95400 | 62 | –
2 | O=C(O)CCc1c(C=C2C(=O)Nc3ccc(Cl)cc32)[nH]c2c1CCCC2 [IN-002, 3-[2-(5-Chloro-2-oxo-1,2-dihydro-indol-3-ylidenemethyl)-4,5.6,7-tetrahydro-1H-indol-3-yl]-propionic acid] | – | 22 | 83500
3 | O=C(O)CCc1c(C=C2C(=O)Nc3ccc(Br)cc32)[nH]c2c1CCCC2 [IN-003, 3-[2-(5-Bromo-2-oxo-1,2-dihydro-indol-3-ylidenemethyl)-4,5,6,7-tetrahydro-1H-indol-3-yl]-propionic acid] | 78500 | 29 | –
4 | Cc1cccc2c1C(=Cc1[nH]c3c(c1CCC(=O)O)CCCC3)C(=O)N2 [IN-004, 3-[2-(4-Methyl-2-oxo-1,2-dihydro-indol-3-ylidenemethyl)-4,5,6,7-tetrahydro-1H-indol-3-yl]-propionic acid] | 52000 | 23 | –
5 | Cc1ccc2c(c1)C(=Cc1[nH]c3c(c1CCC(=O)O)CCCC3)C(=O)N2 [IN-005, 3-[2-(5-Methyl-2-oxo-1,2-dihydro-indol-3-ylidenemethyl)-4,5,6,7-tetrahydro-1H-indol-3-yl]-propionic acid] | 61500 | 63 | –
6 | COc1ccc2c(c1)NC(=O)C2=Cc1[nH]c2c(c1CCC(=O)O)CCCC2 [IN-007, 3-[2-(6-Methoxy-2-oxo-1,2-dihydro-indol-3-ylidenemethyl)-4,5,6,7-tetrahydro-1H-indol-3-yl]-propionic acid] | > 100000 | 810 | –
7 | CN(C)C(=O)CCc1c(C=C2C(=O)Nc3ccccc32)[nH]c2c1CCCC2 [IN-008, N,N-Dimethyl-3-[2-(2-oxo-1,2-dihydro-indol-3-ylidenemethyl)-4,5,6,7-tetrahydro-1H-indol-3-yl]-propionamide] | > 50000 | 500 | –
8 | CN(C)CCCc1c(C=C2C(=O)Nc3ccccc32)[nH]c2c1CCCC2 [IN-009, 3-[3-(3-Dimethylamino-propyl)-4,5,6,7-tetrahydro-1H-indol-2-ylmethylene]-1,3-dihydro-indol-2-one] | > 50000 | 7400 | –
9 | NC(=O)CCc1c(C=C2C(=O)Nc3ccccc32)[nH]c2c1CCCC2 [IN-010, 3-[2-(2-Oxo-1,2-dihydro-indol-3-ylidenemethyl)-4,5,6,7-tetrahydro-1H-indol-3-yl]-propionamide] | 95400 | 130 | –
10 | O=C1Nc2ccccc2C1=Cc1[nH]c2c(c1CCC(=O)N1CCOCC1)CCCC2 [IN-011, 3-[3-(3-Morpholin-4-yl-3-oxo-propyl)-4,5 6,7-tetrahydro-1H-indol-2-ylmethylene]-1,3-dihydro-indol-2-one] | 83500 | < 780 | –
11 | CNC(=O)CCc1c(C=C2C(=O)Nc3ccccc32)[nH]c2c1CCCC2 [IN-012, N-Methyl-3-[2-(2-oxo-1,2-dihydro-indol-3-ylidenemethyl)-4,5,6,7-tetrahydro-1H-indol-3-yl]-propionamide] | 78500 | < 780 | –
12 | O=C(CCc1c(C=C2C(=O)Nc3ccccc32)[nH]c2c1CCCC2)NCCN1CCOCC1 [IN-013, N-(2-Morpholin-4-yl-ethyl)-3-[2-(2-oxo-1,2-dihydro-indol-3-ylidenemethyl)-4,5,6,7-tetrahydro-1H-indol-3-yl]-propionamide] | 52000 | 630 | –
13 | Cc1c[nH]c(C=C2C(=O)Nc3ccccc32)c1CCC(=O)O [IN-026, 3-[4-Methyl-2-(2-oxo-1,2-dihydro-indol-3-ylidenemethyl)-1H-pyrrol-3-yl]-propionic acid] | > 100000 | 200 | –
14 | Cc1c[nH]c(C=C2C(=O)Nc3ccc(Cl)cc32)c1CCC(=O)O [IN-027, 3-[2-(5-Chloro-2-oxo-1,2-dihydro-indol-3-ylidenemethyl)-4-methyl-1H-pyrrol-3-yl]-propionic acid] | > 50000 | 2900 | –
15 | COc1ccc2c(c1)NC(=O)C2=Cc1[nH]cc(C)c1CCC(=O)O [IN-028, 3-[2-(6-Methoxy-2-oxo-1,2-dihydro-indol-3-ylidenemethyl)-4-methyl-1H-pyrrol-3-yl]-propionic acid] | > 50000 | 1500 | –
16 | Cc1c[nH]c(C=C2C(=O)Nc3cccc(C)c32)c1CCC(=O)O [IN-029, 3-[2-(4-Methyl-2-oxo-1,2-dihydro-indol-3-ylidenemethyl)-4-methyl-1H-pyrrol-3-yl]-propionic acid] | – | 200 | 43500
17 | Cc1c[nH]c(C=C2C(=O)Nc3cc(Cl)ccc32)c1CCC(=O)O [IN-030, 3-[2-(6-Chloro-2-oxo-1,2-dihydro-indol-3-ylidenemethyl)-4-methyl-1H-pyrrol-3-yl]-propionic acid] | > 50000 | 190 | –
18 | Cc1c[nH]c(C=C2C(=O)Nc3ccc(Br)cc32)c1CCC(=O)O [IN-031, 3-[2-(5-Bromo-2-oxo-1,2-dihydro-indol-3-ylidenemethyl)-4-methyl-1H-pyrrol-3-yl]-propionic acid] | > 50000 | 350 | –
